As a reminder, the IC50 is the point on the concentration scale where inhibition reaches its midpoint.

This note sets out measurements from ChEMBL document CHEMBL1921759, “Antiprotozoal activity of proton-pump inhibitors” (Bioorg Med Chem Lett, 2011).

Holding throughout (assay type): functional, organism-based
One assay has as its system Entamoeba histolytica. Briefly: Antiprotozoan activity against Entamoeba histolytica HM1-IMSS trophozoites compound treated for 48 hrs measured after 48 hrs washout period.
Assay [1] deals with Giardia intestinalis. Kind of assay: Antiprotozoan activity against Giardia intestinalis IMSS:0989:1 trophozoites compound treated for 48 hrs measured after 48 hrs washout period. The note with it: Giardia duodenalis, IMSS:0989:1, 48 h.
The subject of assay [2] is Trichomonas vaginalis. Briefly: Antiprotozoan activity against Trichomonas vaginalis GT3 trophozoites compound treated for 48 hrs measured after 48 hrs washout period. The note with it: GT3, 48 h.
Assay [3] relates to Giardia intestinalis. Briefly: Antiprotozoan activity against Giardia intestinalis. The note with it: Giardia duodenalis.
Assay [4] deals with Trichomonas vaginalis. Briefly: Antiprotozoan activity against Trichomonas vaginalis.

With `COCCCOc1ccnc(C[S+]([O-])c2nc3ccccc3[nH]2)c1C` (centres undefined) [RABEPRAZOLE], the values for the IC50 in the assay on Entamoeba histolytica, in the assay with Giardia intestinalis [1] and in the assay with Trichomonas vaginalis [2] were 0.0237 µM, 0.0181 µM and 0.106 µM, respectively.
The matching figures for `COc1ccc2[nH]c([S+]([O-])Cc3ncc(C)c(OC)c3C)nc2c1` (centres undefined) [OMEPRAZOLE]: 0.492 µM, 0.0955 µM and 0.122 µM.
As to `Cc1c(OCC(F)(F)F)ccnc1C[S+]([O-])c1nc2ccccc2[nH]1` (centres undefined) [LANSOPRAZOLE], the half-maximal inhibitory concentration (IC50) in the assay with Entamoeba histolytica came to 0.347 µM; with Giardia intestinalis [1], 0.0731 µM; with Trichomonas vaginalis [2], 0.122 µM.
As to `CN(C)CCSc1nc2c(Cl)cc(Cl)cc2[nH]1`, the IC50 with Giardia intestinalis [3] came out at 0.02 µM; in the assay with Trichomonas vaginalis [4] it was 0.072 µM.
In the case of `COc1ccnc(C[S+]([O-])c2nc3cc(OC(F)F)ccc3[nH]2)c1OC` (centres undefined) [PANTOPRAZOLE], the IC50 with Entamoeba histolytica amounted to 0.0026 µM; in the assay with Giardia intestinalis [1], 0.0157 µM; with Trichomonas vaginalis [2], 0.0756 µM.
